Measured values reported in patent publication US12060347B2 (BRISTOL-MYERS SQUIBB COMPANY, priority 2016, dated 2024).

Target: T1, human PAR4 (Homo sapiens, UniProt Q96RI0)
T1 construct: expressed in transfected cells; host or cells: HEK293 PAR4 Clone 1.2A (BMS Arctic ID 383940)
T1 sequence (Q96RI0 18-385): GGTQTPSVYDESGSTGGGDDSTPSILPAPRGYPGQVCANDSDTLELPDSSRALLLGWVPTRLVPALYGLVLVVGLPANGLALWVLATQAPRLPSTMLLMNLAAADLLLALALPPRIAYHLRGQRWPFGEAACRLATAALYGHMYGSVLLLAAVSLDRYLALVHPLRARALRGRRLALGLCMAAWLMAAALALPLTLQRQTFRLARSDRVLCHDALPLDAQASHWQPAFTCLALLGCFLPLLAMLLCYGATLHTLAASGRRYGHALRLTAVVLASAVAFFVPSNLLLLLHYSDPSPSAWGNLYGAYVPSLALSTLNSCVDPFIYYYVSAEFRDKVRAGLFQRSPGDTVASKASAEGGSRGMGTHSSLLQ
Experiment: PAR4 FLIPR assay: antagonism of agonist-peptide-induced calcium mobilization in PAR4-expressing HEK293 cells
Assay type: cell-based
Details: H-Ala-Phe(4-F)-[…]NH2-induced intracellular calcium mobilization, 11-point curves

Structure (SMILES)	IC50
CCOc1cnc2c(-c3nc4cc(F)c(O[C@@H](C)[C@@H](C)OC(=O)Nc5cnc(CCO)nc5)cc4s3)cc(C)cc2n1 [Example 566, (2R,3S)-3-((2-(2-ethoxy-7-methylquinoxalin-5-yl)-5-fluorobenzo[d]thiazol-6-yl)oxy)butan-2-yl (2-(2-hydroxyethyl)pyrimidin-5-yl)carbamate]	1.8 nM
COc1cnc2c(-c3nc4cc(F)c(OC[C@@H](C)OC(=O)Nc5ccnc(OCCC(C)(C)O)c5)cc4s3)cc(C)cc2n1 [Example 567, (R)-1-((5-fluoro-2-(2-methoxy-7-methylquinoxalin-5-yl)benzo[d]thiazol-6-yl)oxy)propan-2-yl (2-(3-hydroxy-3-methylbutoxy)pyridin-4-yl)carbamate]	5.9 nM
CCOc1cnc2c(-c3nc4cc(F)c(O[C@@H](C)[C@@H](C)OC(=O)Nc5cnc(OCCO)nc5)cc4s3)cc(C)cc2n1 [Example 568, (2R,3S)-3-((2-(2-ethoxy-7-methylquinoxalin-5-yl)-5-fluorobenzo[d]thiazol-6-yl)oxy)butan-2-yl (2-(2-hydroxyethoxy)pyrimidin-5-yl)carbamate]	2.4 nM
COc1cnc2c(-c3nc4cc(F)c(OC[C@@H](C)OC(=O)Nc5cnc(OCCC(C)(C)O)nc5)cc4s3)cc(C)cc2n1 [Example 569, (R)-1-((5-fluoro-2-(2-methoxy-7-methylquinoxalin-5-yl)benzo[d]thiazol-6-yl)oxy)propan-2-yl (2-(3-hydroxy-3-methylbutoxy)pyrimidin-5-yl)carbamate]	8.2 nM
COc1cnc2c(-c3nc4cc(F)c(O[C@@H](C)[C@@H](C)OC(=O)Nc5cnc(OCCC(C)(C)O)nc5)cc4s3)cc(C)cc2n1 [Example 570, (2R,3S)-3-((5-fluoro-2-(2-methoxy-7-methylquinoxalin-5-yl)benzo[d]thiazol-6-yl)oxy)butan-2-yl (2-(3-hydroxy-3-methylbutoxy)pyrimidin-5-yl)carbamate]	6.6 nM
COc1cnc2c(-c3nc4cc(F)c(O[C@@H](C)[C@@H](C)OC(=O)Nc5ccc(OCCO)nc5)cc4s3)cc(C)cc2n1 [Example 571, (2R,3S)-3-((5-fluoro-2-(2-methoxy-7-methylquinoxalin-5-yl)benzo[d]thiazol-6-yl)oxy)butan-2-yl (6-(2-hydroxyethoxy)pyridin-3-yl)carbamate]	1 nM
COc1cnc2c(-c3nc4cc(F)c(OC[C@@H](C)OC(=O)Nc5ccc(OCCO)nc5)cc4s3)cc(C)cc2n1 [Example 572, (R)-1-((5-fluoro-2-(2-methoxy-7-methylquinoxalin-5-yl)benzo[d]thiazol-6-yl)oxy)propan-2-yl (6-(2-hydroxyethoxy)pyridin-3-yl)carbamate]	0.9 nM
COc1cnc2c(-c3nc4cc(F)c(O[C@@H](C)[C@@H](C)OC(=O)Nc5ccc(OCC(F)(F)CO)nc5)cc4s3)cc(C)cc2n1 [Example 573, (2R,3S)-3-((5-fluoro-2-(2-methoxy-7-methylquinoxalin-5-yl)benzo[d]thiazol-6-yl)oxy)butan-2-yl (6-(2,2-difluoro-3-hydroxypropoxy)pyridin-3-yl)carbamate]	1.6 nM
COc1cnc2c(-c3nc4cc(F)c(OC[C@@H](C)OC(=O)Nc5ccc(OCC(F)(F)CO)nc5)cc4s3)cc(C)cc2n1 [Example 574, (R)-1-((5-fluoro-2-(2-methoxy-7-methylquinoxalin-5-yl)benzo[d]thiazol-6-yl)oxy)propan-2-yl (6-(2,2-difluoro-3-hydroxypropoxy)pyridin-3-yl)carbamate]	2 nM
COc1cnc2c(-c3nc4cc(F)c(O[C@@H](C)[C@@H](C)OC(=O)Nc5cnc(OCC(C)(C)O)nc5)cc4s3)cc(C)cc2n1 [Example 575, (2R,3S)-3-((5-fluoro-2-(2-methoxy-7-methylquinoxalin-5-yl)benzo[d]thiazol-6-yl)oxy)butan-2-yl (2-(2-hydroxy-2-methylpropoxy)pyrimidin-5-yl)carbamate]	0.6 nM
COc1cnc2c(-c3nc4cc(F)c(OC[C@@H](C)OC(=O)Nc5cnc(OCC(C)(C)O)nc5)cc4s3)cc(C)cc2n1 [Example 576, (R)-1-((5-fluoro-2-(2-methoxy-7-methylquinoxalin-5-yl)benzo[d]thiazol-6-yl)oxy)propan-2-yl (2-(2-hydroxy-2-methylpropoxy)pyrimidin-5-yl)carbamate]	1.2 nM
COc1cnc2c(-c3nc4cc(F)c(O[C@@H](C)[C@@H](C)OC(=O)Nc5cnc(CC(C)(C)O)nc5)cc4s3)cc(C)cc2n1 [Example 577, (2R,3S)-3-((5-fluoro-2-(2-methoxy-7-methylquinoxalin-5-yl)benzo[d]thiazol-6-yl)oxy)butan-2-yl (2-(2-hydroxy-2-methylpropyl)pyrimidin-5-yl)carbamate]	1 nM
COc1cnc2c(-c3nc4cc(F)c(O[C@@H](C)[C@@H](C)OC(=O)Nc5cnc(OC[C@@H](C)O)nc5)cc4s3)cc(C)cc2n1 [Example 578, (2R,3S)-3-((5-fluoro-2-(2-methoxy-7-methylquinoxalin-5-yl)benzo[d]thiazol-6-yl)oxy)butan-2-yl (2-((R)-2-hydroxypropoxy)pyrimidin-5-yl)carbamate]	5.8 nM
COc1cnc2c(-c3nc4cc(F)c(O[C@@H](C)[C@@H](C)OC(=O)Nc5cnc(CCO)nc5)cc4s3)cc(Cl)cc2c1 [Example 579, (2R,3S)-3-((2-(6-chloro-3-methoxyquinolin-8-yl)-5-fluorobenzo[d]thiazol-6-yl)oxy)butan-2-yl (2-(2-hydroxyethyl)pyrimidin-5-yl)carbamate]	3.3 nM
CCOc1cnc2c(-c3nc4cc(F)c(O[C@@H](C)[C@@H](C)OC(=O)Nc5cnc(OC[C@@H](C)O)nc5)cc4s3)cc(C)cc2n1 [Example 580, (2R,3S)-3-((2-(2-ethoxy-7-methylquinoxalin-5-yl)-5-fluorobenzo[d]thiazol-6-yl)oxy)butan-2-yl (2-((R)-2-hydroxypropoxy)pyrimidin-5-yl)carbamate]	1.1 nM
COc1cnc2c(-c3nc4cc(F)c(O[C@@H](C)[C@@H](C)OC(=O)Nc5cnc(OC[C@H](C)O)nc5)cc4s3)cc(C)cc2n1 [Example 581, (2R,3S)-3-((5-fluoro-2-(2-methoxy-7-methylquinoxalin-5-yl)benzo[d]thiazol-6-yl)oxy)butan-2-yl (2-((S)-2-hydroxypropoxy)pyrimidin-5-yl)carbamate]	4.1 nM
CCOc1cnc2c(-c3nc4cc(F)c(O[C@@H](C)[C@@H](C)OC(=O)Nc5cnc(OC[C@H](C)O)nc5)cc4s3)cc(C)cc2n1 [Example 582, (2R,3S)-3-((2-(2-ethoxy-7-methylquinoxalin-5-yl)-5-fluorobenzo[d]thiazol-6-yl)oxy)butan-2-yl (2-((S)-2-hydroxypropoxy)pyrimidin-5-yl)carbamate]	5.3 nM
COc1cnc2c(-c3nc4c(Cl)c(F)c(OC[C@@H](C)OC(=O)Nc5cnc(C)nc5)cc4s3)cc(C)cc2n1 [Example 589, (R)-1-((4-chloro-5-fluoro-2-(2-methoxy-7-methylquinoxalin-5-yl)benzo[d]thiazol-6-yl)oxy)propan-2-yl (2-methylpyrimidin-5-yl)carbamate]	0.8 nM
COc1cnc2c(-c3nc4c(Cl)c(F)c(OC[C@@H](C)OC(=O)Nc5cccnc5C)cc4s3)cc(C)cc2n1 [Example 590, (R)-1-((4-chloro-5-fluoro-2-(2-methoxy-7-methylquinoxalin-5-yl)benzo[d]thiazol-6-yl)oxy)propan-2-yl (2-methylpyridin-3-yl)carbamate]	25 nM
COc1cnc2c(-c3nc4c(Cl)c(F)c(OC[C@@H](C)OC(=O)Nc5cncnc5)cc4s3)cc(C)cc2n1 [Example 591, (R)-1-((4-chloro-5-fluoro-2-(2-methoxy-7-methylquinoxalin-5-yl)benzo[d]thiazol-6-yl)oxy)propan-2-yl pyrimidin-5-ylcarbamate]	7 nM
COc1cnc2c(-c3nc4cc(F)c(OC[C@@H](C)OC(=O)Nc5ccc(C)nc5)cc4s3)cc(C)cc2n1 [Example 592, (R)-1-((5-fluoro-2-(2-methoxy-7-methylquinoxalin-5-yl)benzo[d]thiazol-6-yl)oxy)propan-2-yl (6-methylpyridin-3-yl)carbamate]	0.7 nM
COc1cnc2c(-c3nc4c(Cl)c(F)c(OC[C@@H](C)OC(=O)OCc5ccc(N)cn5)cc4s3)cc(C)cc2n1 [Example 596, (R)-(5-aminopyridin-2-yl)methyl (1-((4-chloro-5-fluoro-2-(2-methoxy-7-methylquinoxalin-5-yl)benzo[d]thiazol-6-yl)oxy)propan-2-yl) carbonate]	130 nM
COc1cnc2c(-c3nc4cc(F)c(OC[C@@H](C)OC(=O)Nc5cnc(N(C)C)nc5)cc4s3)cc(C)cc2n1 [Example 597, (R)-1-((5-fluoro-2-(2-methoxy-7-methylquinoxalin-5-yl)benzo[d]thiazol-6-yl)oxy)propan-2-yl (2-(dimethylamino)pyrimidin-5-yl)carbamate]	15 nM
COc1cnc2c(-c3nc4cc(F)c(O[C@@H](C)[C@@H](C)OC(=O)Nc5cnc(N(C)C)nc5)cc4s3)cc(C)cc2n1 [Example 598, (2R,3S)-3-((5-fluoro-2-(2-methoxy-7-methylquinoxalin-5-yl)benzo[d]thiazol-6-yl)oxy)butan-2-yl (2-(dimethylamino)pyrimidin-5-yl)carbamate]	3.7 nM
COc1cnc2c(-c3nc4cc(F)c(O[C@@H](C)[C@@H](C)OC(=O)Nc5ccc(N(C)C)nc5)cc4s3)cc(C)cc2n1 [Example 599, (2R,3S)-3-((5-fluoro-2-(2-methoxy-7-methylquinoxalin-5-yl)benzo[d]thiazol-6-yl)oxy)butan-2-yl (6-(dimethylamino)pyridin-3-yl)carbamate]	5.6 nM
